Laboratory results from ChEMBL document CHEMBL1275379, “Indazolylpyrazolopyrimidine as highly potent B-Raf inhibitors with in vivo activity” (J Med Chem, 2010).
pIC50: −log10 of the molar value. The source made the active and inactive calls. No cut-off for these calls is given here.

Legend:
[1] = Half life in human liver microsomes; format: ADME, Microsome
[2] = Half life in nude mouse liver microsomes; format: ADME, Microsome
[3] = test system: A-375; assay: Growth inhibition of human A375 cells after 4 days by MTT assay; format: functional, cell-based; details: A-375, 96 h
[4] = molecular target: T1, Tyrosine-protein kinase ABL1 (Homo sapiens, UniProt P00519); assay: Inhibition of ABL1 at 1 uM
T1 sequence (P00519 whole entry): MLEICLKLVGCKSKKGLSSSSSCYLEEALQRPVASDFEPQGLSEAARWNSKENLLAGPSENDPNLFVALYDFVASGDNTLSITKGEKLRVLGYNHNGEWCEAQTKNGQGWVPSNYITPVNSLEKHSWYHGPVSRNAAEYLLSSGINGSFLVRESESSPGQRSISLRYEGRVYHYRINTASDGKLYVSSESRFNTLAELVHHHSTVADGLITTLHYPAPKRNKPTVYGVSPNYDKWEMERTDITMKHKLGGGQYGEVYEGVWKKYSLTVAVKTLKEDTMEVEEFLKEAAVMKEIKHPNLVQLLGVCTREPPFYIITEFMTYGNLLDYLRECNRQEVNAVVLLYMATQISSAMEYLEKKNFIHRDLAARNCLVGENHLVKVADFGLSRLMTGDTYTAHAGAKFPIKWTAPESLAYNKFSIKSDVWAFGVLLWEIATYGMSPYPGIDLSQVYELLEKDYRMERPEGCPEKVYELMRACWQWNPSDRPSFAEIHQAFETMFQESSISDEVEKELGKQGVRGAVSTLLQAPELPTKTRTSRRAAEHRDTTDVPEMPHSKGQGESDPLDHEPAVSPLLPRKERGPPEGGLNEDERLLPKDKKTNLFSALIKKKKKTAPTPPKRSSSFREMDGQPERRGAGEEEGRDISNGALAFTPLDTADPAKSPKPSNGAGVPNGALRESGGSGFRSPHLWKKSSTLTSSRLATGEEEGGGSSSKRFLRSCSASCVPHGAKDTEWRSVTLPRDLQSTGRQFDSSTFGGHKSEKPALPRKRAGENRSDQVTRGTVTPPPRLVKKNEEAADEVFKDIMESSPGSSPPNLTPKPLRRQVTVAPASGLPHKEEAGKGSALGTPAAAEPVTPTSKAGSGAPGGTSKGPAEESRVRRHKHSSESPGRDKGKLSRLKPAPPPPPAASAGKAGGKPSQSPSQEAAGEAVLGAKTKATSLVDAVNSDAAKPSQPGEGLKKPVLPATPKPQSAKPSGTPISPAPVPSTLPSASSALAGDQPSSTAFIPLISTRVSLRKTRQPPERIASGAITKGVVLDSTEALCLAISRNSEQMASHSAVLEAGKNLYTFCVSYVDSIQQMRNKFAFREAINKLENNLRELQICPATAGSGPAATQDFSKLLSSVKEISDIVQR

[5] = molecular target: RAC-beta serine/threonine-protein kinase (Homo sapiens) (UniProt P31751); assay: Inhibition of AKT2 at 1 uM
[6] = molecular target: Aurora kinase A (Homo sapiens) (UniProt O14965); assay: Inhibition of AURKA at 1 uM
[7] = molecular target: Aurora kinase B (Homo sapiens) (UniProt Q96GD4); assay: Inhibition of AURKB at 1 uM
[8] = molecular target: Tyrosine-protein kinase BTK (Homo sapiens) (UniProt Q06187); assay: Inhibition of BTK at 1 uM
[9] = molecular target: Cyclin-dependent kinase 1/cyclin B (Homo sapiens) (UniProt P06493+P14635+Q8WWL7+O95067); assay: Inhibition of CDK1/cyclin B at 1 uM; format: protein-complex assay
[10] = molecular target: Cyclin-dependent kinase 2/cyclin A (Homo sapiens) (UniProt P24941+P20248+P78396); assay: Inhibition of CDK2/cyclin A at 1 uM; format: protein-complex assay
[11] = molecular target: Serine/threonine-protein kinase Chk2 (Homo sapiens) (UniProt O96017); assay: Inhibition of CHEK2 at 1 uM
[12] = molecular target: Tyrosine-protein kinase CSK (Homo sapiens) (UniProt P41240); assay: Inhibition of CSK at 1 uM
[13] = molecular target: Tyrosine-protein kinase Fes/Fps (Homo sapiens) (UniProt P07332); assay: Inhibition of FES at 1 uM
[14] = molecular target: Fibroblast growth factor receptor 2 (Homo sapiens) (UniProt P21802); assay: Inhibition of FGFR2 at 1 uM
[15] = molecular target: Glycogen synthase kinase-3 alpha (Homo sapiens) (UniProt P49840); assay: Inhibition of GSK3A at 1 uM
[16] = molecular target: Glycogen synthase kinase-3 beta (Homo sapiens) (UniProt P49841); assay: Inhibition of GSK3B at 1 uM
[17] = molecular target: Insulin-like growth factor 1 receptor (Homo sapiens) (UniProt P08069); assay: Inhibition of IGF1R at 1 uM
[18] = molecular target: Tyrosine-protein kinase JAK2 (Homo sapiens) (UniProt O60674); assay: Inhibition of JAK2 at 1 uM
[19] = molecular target: Vascular endothelial growth factor receptor 2 (Homo sapiens) (UniProt P35968); assay: Inhibition of KDR at 1 uM
[20] = molecular target: Mast/stem cell growth factor receptor Kit (Homo sapiens) (UniProt P10721); assay: Inhibition of KIT at 1 uM
[21] = molecular target: T2, Tyrosine-protein kinase Lck (Homo sapiens, UniProt P06239); assay: Inhibition of LCK at 1 uM
[22] = molecular target: Dual specificity mitogen-activated protein kinase kinase 1 (Homo sapiens) (UniProt Q02750); assay: Inhibition of MAP2K at 1 uM
[23] = molecular target: Mitogen-activated protein kinase 1 (Homo sapiens) (UniProt P28482); assay: Inhibition of MAPK1 at 1 uM
[24] = molecular target: Hepatocyte growth factor receptor (Homo sapiens) (UniProt P08581); assay: Inhibition of MET at 1 uM
[25] = molecular target: Serine/threonine-protein kinase Nek2 (Homo sapiens) (UniProt P51955); assay: Inhibition of NEK2 at 1 uM
[26] = molecular target: High affinity nerve growth factor receptor (Homo sapiens) (UniProt P04629); assay: Inhibition of NTRK1 at 1 uM
[27] = molecular target: Platelet-derived growth factor receptor alpha (Homo sapiens) (UniProt P16234); assay: Inhibition of PDGFRA at 1 uM
Chain of Platelet-derived growth factor receptor alpha (Homo sapiens) (P16234 whole entry): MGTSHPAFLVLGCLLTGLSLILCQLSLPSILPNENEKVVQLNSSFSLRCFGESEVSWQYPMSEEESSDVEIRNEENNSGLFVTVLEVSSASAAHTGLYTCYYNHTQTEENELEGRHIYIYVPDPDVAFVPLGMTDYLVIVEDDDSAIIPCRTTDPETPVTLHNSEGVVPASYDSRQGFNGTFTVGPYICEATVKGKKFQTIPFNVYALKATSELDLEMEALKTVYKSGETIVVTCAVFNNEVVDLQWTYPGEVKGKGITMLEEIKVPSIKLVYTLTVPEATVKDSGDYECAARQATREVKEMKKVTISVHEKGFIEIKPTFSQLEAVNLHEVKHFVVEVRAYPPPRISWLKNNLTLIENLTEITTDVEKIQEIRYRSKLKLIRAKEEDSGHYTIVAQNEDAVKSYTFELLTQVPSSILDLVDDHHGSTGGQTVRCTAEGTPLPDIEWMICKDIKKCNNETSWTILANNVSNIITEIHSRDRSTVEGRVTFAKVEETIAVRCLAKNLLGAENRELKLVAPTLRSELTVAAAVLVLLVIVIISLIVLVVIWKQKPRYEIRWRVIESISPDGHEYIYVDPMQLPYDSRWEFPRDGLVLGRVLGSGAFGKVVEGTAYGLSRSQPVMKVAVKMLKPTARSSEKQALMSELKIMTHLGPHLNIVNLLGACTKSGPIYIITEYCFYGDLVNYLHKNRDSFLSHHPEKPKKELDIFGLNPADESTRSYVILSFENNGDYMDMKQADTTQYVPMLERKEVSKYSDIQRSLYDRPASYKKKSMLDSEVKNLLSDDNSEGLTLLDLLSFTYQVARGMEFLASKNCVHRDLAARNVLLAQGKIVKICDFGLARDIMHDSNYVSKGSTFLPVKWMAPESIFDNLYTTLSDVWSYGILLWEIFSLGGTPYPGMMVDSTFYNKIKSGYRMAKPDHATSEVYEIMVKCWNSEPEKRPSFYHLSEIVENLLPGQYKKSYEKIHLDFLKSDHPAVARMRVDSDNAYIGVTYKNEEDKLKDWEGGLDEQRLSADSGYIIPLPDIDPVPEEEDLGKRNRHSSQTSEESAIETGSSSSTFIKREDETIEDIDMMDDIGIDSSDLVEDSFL

[28] = molecular target: Platelet-derived growth factor receptor beta (Homo sapiens) (UniProt P09619); assay: Inhibition of PDGFRB at 1 uM
[29] = molecular target: Serine/threonine-protein kinase PLK1 (Homo sapiens) (UniProt P53350); assay: Inhibition of PLK1 at 1 uM
[30] = Inhibition of PRKA at 1 uM
[31] = molecular target: T3, Proto-oncogene tyrosine-protein kinase receptor Ret (Homo sapiens, UniProt P07949); assay: Inhibition of RET at 1 uM
T3 sequence (P07949 whole entry): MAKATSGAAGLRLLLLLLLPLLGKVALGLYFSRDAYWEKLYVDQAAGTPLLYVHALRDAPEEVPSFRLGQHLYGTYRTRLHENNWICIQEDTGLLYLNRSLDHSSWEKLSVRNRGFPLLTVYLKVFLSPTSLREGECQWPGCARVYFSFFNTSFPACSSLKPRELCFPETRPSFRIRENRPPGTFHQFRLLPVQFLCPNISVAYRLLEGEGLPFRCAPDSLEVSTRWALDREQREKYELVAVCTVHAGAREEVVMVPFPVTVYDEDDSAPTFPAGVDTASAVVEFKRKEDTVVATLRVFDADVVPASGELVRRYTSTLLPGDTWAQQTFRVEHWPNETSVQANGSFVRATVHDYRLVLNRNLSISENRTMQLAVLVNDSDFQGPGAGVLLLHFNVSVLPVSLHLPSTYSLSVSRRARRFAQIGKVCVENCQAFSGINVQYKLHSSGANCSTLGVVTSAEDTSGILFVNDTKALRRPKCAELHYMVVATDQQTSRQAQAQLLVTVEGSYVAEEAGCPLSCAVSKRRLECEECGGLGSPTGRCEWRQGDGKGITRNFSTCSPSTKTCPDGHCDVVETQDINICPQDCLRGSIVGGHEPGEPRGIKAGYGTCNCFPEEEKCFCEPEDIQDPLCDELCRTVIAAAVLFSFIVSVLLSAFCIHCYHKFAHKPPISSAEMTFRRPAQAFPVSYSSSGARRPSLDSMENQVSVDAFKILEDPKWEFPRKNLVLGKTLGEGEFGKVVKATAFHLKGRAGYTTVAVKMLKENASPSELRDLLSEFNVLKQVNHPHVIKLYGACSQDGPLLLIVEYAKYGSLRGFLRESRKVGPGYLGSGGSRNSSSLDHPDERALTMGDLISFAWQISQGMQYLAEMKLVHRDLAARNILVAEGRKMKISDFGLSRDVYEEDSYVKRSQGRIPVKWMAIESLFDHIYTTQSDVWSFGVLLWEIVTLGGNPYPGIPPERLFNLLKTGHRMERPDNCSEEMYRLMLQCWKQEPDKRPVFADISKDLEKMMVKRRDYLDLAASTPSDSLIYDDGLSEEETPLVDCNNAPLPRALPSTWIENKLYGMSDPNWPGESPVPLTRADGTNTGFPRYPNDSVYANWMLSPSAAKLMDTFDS

[32] = molecular target: Rho-associated protein kinase 1 (Homo sapiens) (UniProt Q13464); assay: Inhibition of ROCK1 at 1 uM
[33] = molecular target: Ribosomal protein S6 kinase beta-1 (Homo sapiens) (UniProt P23443); assay: Inhibition of RPS6B1 at 1 uM
[34] = molecular target: Serine/threonine-protein kinase Sgk1 (Homo sapiens) (UniProt O00141); assay: Inhibition of SGK at 1 uM
[35] = molecular target: Tyrosine-protein kinase ZAP-70 (Homo sapiens) (UniProt P43403); assay: Inhibition of ZAP70 at 1 uM
[36] = molecular target: T1, Tyrosine-protein kinase ABL1; assay: Inhibition of ABL1
[37] = molecular target: T2, Tyrosine-protein kinase Lck; assay: Inhibition of LCK
[38] = molecular target: T4, Mitogen-activated protein kinase 14 (Homo sapiens, UniProt Q16539); assay: Inhibition of MAPK14
T4 sequence (Q16539 whole entry): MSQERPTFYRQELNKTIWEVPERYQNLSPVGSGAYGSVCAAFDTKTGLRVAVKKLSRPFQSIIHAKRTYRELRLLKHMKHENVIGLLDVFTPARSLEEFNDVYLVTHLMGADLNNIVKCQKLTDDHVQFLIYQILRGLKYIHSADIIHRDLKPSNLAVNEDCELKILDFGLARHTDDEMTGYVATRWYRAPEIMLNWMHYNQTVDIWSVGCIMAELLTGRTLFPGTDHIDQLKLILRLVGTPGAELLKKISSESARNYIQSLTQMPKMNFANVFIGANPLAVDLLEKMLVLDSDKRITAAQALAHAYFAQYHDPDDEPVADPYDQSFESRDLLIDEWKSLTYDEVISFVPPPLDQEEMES

[39] = molecular target: RAF proto-oncogene serine/threonine-protein kinase (Homo sapiens, UniProt P04049); assay: Inhibition of C-raf
[40] = molecular target: T3, Proto-oncogene tyrosine-protein kinase receptor Ret; assay: Inhibition of RET
[41] = molecular target: Tyrosine-protein kinase Yes (Homo sapiens, UniProt P07947); assay: Inhibition of YES1
[42] = test system: Serine/threonine-protein kinase B-raf (Homo sapiens), P15056 [V600E]; assay: Inhibition of BRAF V600E mutant in human A375 cells assessed as reduction of ERK phosphorylation; format: cell-based; details: A-375
[43] = Half life in nude mouse; format: ADME, organism-based; details: in vivo
[44] = Volume of distribution at steady state in nude mouse; format: ADME, organism-based; details: in vivo, read-out: Vdss
[45] = Drug level in tumor tissue of human A375 cells xenografted nude mouse at 25 mg/kg, po after 6 hrs; format: ADME, organism-based, Neoplasm, A-375; design: dose 25 mg/kg, route oral; details: read-out: Drug uptake
[46] = test system: Mus musculus; assay: Inhibition of BRAF-mediated ERK phosphorylation in human A375 cells xenografted nude mouse at 50 mg/kg, iv after 24 hrs; format: functional, organism-based; design: dose 50 mg/kg; details: A-375
[47] = molecular target: T5, Epidermal growth factor receptor (Homo sapiens, UniProt P00533)
T5 sequence (P00533 whole entry): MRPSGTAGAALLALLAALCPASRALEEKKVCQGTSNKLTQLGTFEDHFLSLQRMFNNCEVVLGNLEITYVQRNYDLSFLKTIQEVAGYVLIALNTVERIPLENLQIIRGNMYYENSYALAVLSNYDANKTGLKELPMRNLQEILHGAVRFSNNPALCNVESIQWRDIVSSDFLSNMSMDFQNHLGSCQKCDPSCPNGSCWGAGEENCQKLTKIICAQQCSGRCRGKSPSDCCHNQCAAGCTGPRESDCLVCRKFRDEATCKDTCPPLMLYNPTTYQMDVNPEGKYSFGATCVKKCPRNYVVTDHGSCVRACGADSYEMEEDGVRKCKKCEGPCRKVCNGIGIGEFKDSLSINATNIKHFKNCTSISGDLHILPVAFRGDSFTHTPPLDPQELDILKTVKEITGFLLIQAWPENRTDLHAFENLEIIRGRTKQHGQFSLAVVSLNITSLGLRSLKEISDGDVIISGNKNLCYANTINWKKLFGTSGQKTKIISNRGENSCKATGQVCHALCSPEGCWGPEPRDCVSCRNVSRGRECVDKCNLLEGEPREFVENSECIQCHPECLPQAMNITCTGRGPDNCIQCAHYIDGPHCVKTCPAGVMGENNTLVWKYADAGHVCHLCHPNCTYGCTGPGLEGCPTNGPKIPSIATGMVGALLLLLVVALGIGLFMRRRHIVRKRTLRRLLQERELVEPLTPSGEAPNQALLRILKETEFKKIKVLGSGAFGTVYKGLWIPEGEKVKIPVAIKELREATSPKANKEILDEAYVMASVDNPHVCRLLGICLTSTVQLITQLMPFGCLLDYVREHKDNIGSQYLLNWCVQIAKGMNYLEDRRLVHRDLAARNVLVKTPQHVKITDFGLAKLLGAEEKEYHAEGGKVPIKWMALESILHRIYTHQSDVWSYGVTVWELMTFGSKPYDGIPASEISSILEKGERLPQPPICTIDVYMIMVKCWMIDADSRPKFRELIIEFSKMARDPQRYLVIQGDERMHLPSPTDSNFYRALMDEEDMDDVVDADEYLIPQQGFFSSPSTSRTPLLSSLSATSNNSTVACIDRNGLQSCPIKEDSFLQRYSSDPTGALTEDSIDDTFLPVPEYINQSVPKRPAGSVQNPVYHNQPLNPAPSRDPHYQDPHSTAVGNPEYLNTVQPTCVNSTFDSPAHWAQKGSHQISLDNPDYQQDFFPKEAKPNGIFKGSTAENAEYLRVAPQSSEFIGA

[48] = molecular target: T5, Epidermal growth factor receptor; details: 1 uM
Description: Inhibition of EGFR at 1 uM

[49] = molecular target: T4, Mitogen-activated protein kinase 14; details: 1 uM
Description: Inhibition of MAPK14 at 1 uM

[50] = molecular target: Angiopoietin-1 receptor (Homo sapiens, UniProt Q02763); details: 1 uM
Description: Inhibition of TEK at 1 uM

[51] = molecular target: 3-phosphoinositide-dependent protein kinase 1 (Homo sapiens) (UniProt O15530); assay: Inhibition of PDK1 at 1 uM
[52] = molecular target: Focal adhesion kinase 1 (PTK2) (Homo sapiens) (UniProt Q05397); assay: Inhibition of PTK2 at 1 uM

SMILES: CN1C[C@@H]2C[C@H]1CN2c1cc(F)c(-c2ccnc3c(-c4cccc5[nH]ncc45)c(-c4ccncc4)nn23)c(F)c1
- half-life [1]: > 0.5 h
- half-life [2]: > 0.5 h
- pIC50 [3]: 7.62
- inhibition [4]: 70%
- inhibition [5]: 9%
- inhibition [6]: 7%
- inhibition [7]: 0%
- inhibition [8]: 48%
- inhibition [9]: 0%
- inhibition [10]: 4%
- inhibition [11]: 7%
- inhibition [12]: 19%
- inhibition [13]: 21%
- inhibition [14]: 66%
- inhibition [15]: 34%
- inhibition [16]: 35%
- inhibition [17]: 5%
- inhibition [18]: -6%
- inhibition [19]: 39%
- inhibition [20]: 9%
- inhibition [21]: 73%
- inhibition [22]: 12%
- inhibition [23]: 6%
- inhibition [24]: 66%
- inhibition [25]: 6%
- inhibition [26]: 25%
- inhibition [27]: 5%
- inhibition [28]: 9%
- inhibition [29]: 11%
- inhibition [30]: 18%
- inhibition [31]: 84%
- inhibition [32]: 3%
- inhibition [33]: 5%
- inhibition [34]: 8%
- inhibition [35]: 4%
- pIC50 [36]: 6.54
- pIC50 [37]: 6.30
- pIC50 [38]: 6.84
- pIC50 [39]: 8.07
- pIC50 [40]: 6.80
- pIC50 [41]: 6.61
- inhibition [42]: Active
- half-life [43]: 3.5 h
- Vd [44]: 4.7 L/kg
- concentration at 6 h [45]: 6.6 µM
- inhibition [46]: Active
- pIC50 [47]: 6.76
- inhibition [48]: 77%
- inhibition [49]: 81%
- inhibition [50]: 81%
- inhibition [51]: 3%
- inhibition [52]: 15%
